Experimental data reported in patent US11185499B2, “Multilayer thin film drug delivery device and methods of making and using the same” (The Regents of the University of California, priority 2011, dated 2021).

How the values were obtained:
[1] = Release of FITC-BSA protein from nanostructured PCL devices; assay type: physicochemical; conditions: nanostructured PCL devices (n=3), pore size 20-40 nm
Source text: Multilayer thin film devices having pore sizes in the range of […]-40 nm were fabricated as described herein.

[2] = Payload calculations and safety consideration; conditions: device designed for delivery over 6 months, failure
Description: The loading requirements for a device are analyzed based upon a zero-order release profile that maintains concentration in the posterior of the eye for at least a 4 month period. For example, based on a 5 mm×5 mm thin-film with 20 nm pores, with a void space of 50% a maximal drug load in this device is 1.3 mg of lyophilized drug, with release rates as high 2 μg/day/mm^2 based on membrane experiments. Desired release rates depend on drug affinity, vitreous half-life, and target vitreous concentration. […] Complete dose dumping for a device designed for delivery over 6 months would produce systemic drug concentration of less than 3.4 ng/ml upon failure, which falls well below the 11-27 ng/ml threshold thought to inhibit VEGF by 50%. In addition, a multi-chambered reservoir (FIG. 10) minimizes the risk that the entire drug payload could be inadvertently dumped. Based upon conservative estimates of Lucentis© half-life in the vitreous humor, a device loaded with approximately 800 μg of drug is estimated to maintain therapeutic levels for a 6 month or longer period.

Substance | release rate [1] [µg/day] | time period of release [1] [days] | systemic drug concentration upon complete dose dumping [2]
FITC-BSA: FITC-BSA protein released from nanostructured PCL devices | 1 | 210 | –
ranibizumab: anti-VEGF formulation (Lucentis, Genentech, Inc.) | – | – | less than 3.4 ng/ml
